# Results from patent publication US20070128217A1 (priority 2003, published 2007).
# Columns and labels:
# [1] = system: antibodies in sera from SARS patients (sera 1a, 1b, 2, 6, 37, 62, London, SARS-yellow, SARS-green); assay type: binding, human; set-up: Binding of serum 6 to linear peptides of protein X1 of SARS-CoV Urbani / Binding of serum 37 to linear peptides of protein X1 of SARS-CoV Urbani / Binding of serum 6 to looped/cyclic peptide (PEPSCAN-ELISA) / Binding of serum 37 to looped/cyclic peptide (PEPSCAN-ELISA) / Binding of serum 37 to looped/cyclic peptides of protein X1 of SARS-CoV Urbani / Binding of serum 6 to linear peptides of protein X2 / Binding of serum 37 to linear peptides of protein X2 / Binding of serum 37 to looped/cyclic peptides of protein X2 of SARS-CoV Urbani / Binding of serum 6 to linear peptides of protein M of SARS-CoV Urbani / Binding of serum 37 to linear peptides of protein M of SARS-CoV Urbani / Binding of serum 6 to looped/cyclic peptides of protein M of SARS-CoV Urbani / Binding of serum 37 to looped/cyclic peptides of protein M of SARS-CoV Urbani / Binding of serum 6 to linear peptides of protein X3 of SARS-CoV Urbani / Binding of serum 37 to linear peptides of protein X3 of SARS-CoV Urbani / Binding of serum 37 to looped/cyclic peptides of protein X3 of SARS-CoV Urbani / Binding of serum 6 to linear peptides of protein X4 of SARS-CoV Urbani / Binding of serum 37 to linear peptides of protein X4 of SARS-CoV Urbani / Binding of serum 37 to looped/cyclic peptides of protein X4 of SARS-CoV Urbani / Binding of serum 6 to linear peptides of protein X5 of SARS-CoV Urbani / Binding of serum 37 to linear peptides of protein X5 of SARS-CoV Urbani / Binding of serum 37 to looped/cyclic peptides of protein X5 of SARS-CoV Urbani / Binding of serum 6 to linear peptides of protein N of SARS-CoV Urbani / Binding of serum 37 to linear peptides of protein N of SARS-CoV Urbani / Binding of serum 6 to linear peptide (PEPSCAN-ELISA) / Binding of serum 1a to looped/cyclic peptides of protein N of SARS-CoV Urbani / Binding of serum 1b to looped/cyclic peptides of protein N of SARS-CoV Urbani / Binding of serum 2 to looped/cyclic peptides of protein N of SARS-CoV Urbani / Binding of serum 6 to looped/cyclic peptides of protein N of SARS-CoV Urbani / Binding of serum 37 to looped/cyclic peptides of protein N of SARS-CoV Urbani / Binding of serum 62 to looped/cyclic peptides of protein N of SARS-CoV Urbani / Binding of serum London to looped/cyclic peptides of protein N of SARS-CoV Urbani / Binding of serum SARS-green to looped/cyclic peptides of protein N of SARS-CoV Urbani: unit not given here
# [2] = system: control sera (pooled serum of ten healthy LUMC hospital workers; commercial negative donor pooled serum from the Dutch bloodbank); assay type: binding, human; set-up: Binding of Control serum LUMC to linear peptides / Binding of Control serum Blood-bank to linear peptides / Binding of Control serum LUMC to looped peptides / Binding of Control Serum Blood-Bank to Looped peptides / Binding of Control serum LUMC to linear peptides of the protein M of SARS-CoV Urbani / Binding of Control serum Blood-bank to linear peptides of the protein M of SARS-CoV Urbani / Binding of Control serum LUMC to looped peptides of the protein M of SARS-CoV Urbani / Binding of Control Serum Blood-Bank to Looped peptides of the protein M of SARS-CoV Urbani: unit not given here
# [3] = system: rabbit serum obtained by immunizing a rabbit with the SARS-CoV strain Frankfurt 1; assay type: binding; set-up: Binding of a rabbit serum to linear peptides / Binding of a rabbit serum to looped peptides / Rabbit serum linear peptides / Rabbit serum looped peptides / Binding of a rabbit serum to linear peptides of protein N of SARS-CoV Urbani (Rabbit serum linear peptides) / Binding of a rabbit serum to looped/cyclic peptides of protein N of SARS-CoV Urbani (Rabbit serum looped peptides): unit not given here
sequence,measurement,setting,value
CINACRIIMRCWLCW,Binding of serum 1a to linear peptides of protein X1 of SARS-CoV Urbani,[1],0.8
same,Binding of serum 1a to looped/cyclic peptide (PEPSCAN-ELISA),[1],0.7
same,Binding of serum 1b to linear peptides of protein X1 of SARS-CoV Urbani,[1],0.5
same,Binding of serum 1b to looped/cyclic peptide (PEPSCAN-ELISA),[1],0.4
same,Binding of serum 2 to linear peptides of protein X1 of SARS-CoV Urbani,[1],0.5
same,Binding of serum 2 to looped/cyclic peptide (PEPSCAN-ELISA),[1],0.6
same,Binding of serum 6 to linear peptides of protein X1 of SARS-CoV Urbani,[1],0.7
same,Binding of serum 6 to looped/cyclic peptide (PEPSCAN-ELISA),[1],0.7
same,Binding of serum 37 to linear peptides of protein X1 of SARS-CoV Urbani,[1],0.6
same,Binding of serum 37 to looped/cyclic peptide (PEPSCAN-ELISA),[1],0.6
same,Binding of serum 62 to linear peptides of protein X1 of SARS-CoV Urbani,[1],0.7
same,Binding of serum 62 to looped/cyclic peptide (PEPSCAN-ELISA),[1],0.7
same,Binding of serum London to linear peptides of protein X1 of SARS-CoV Urbani,[1],0.4
same,Binding of serum London to looped/cyclic peptide (PEPSCAN-ELISA),[1],0.8
same,Binding of serum SARS-green to linear peptides of protein X1 of SARS-CoV Urbani,[1],0.2
same,Binding of serum SARS-green to looped/cyclic peptide (PEPSCAN-ELISA),[1],0.3
same,Binding of serum SARS-yellow to linear peptides of protein X1 of SARS-CoV Urbani,[1],0.4
same,Binding of serum SARS-yellow to looped/cyclic peptide (PEPSCAN-ELISA),[1],0.5
same,Binding of Control Serum Blood-Bank to Looped peptides,[2],0.8
same,Binding of Control serum Blood-bank to linear peptides,[2],0.7
same,Binding of Control serum LUMC to linear peptides,[2],0.8
same,Binding of Control serum LUMC to looped peptides,[2],0.7
same,Recognition of the peptide by the rabbit serum,[3],recognized
CIVGLMWLSYFVASF,Binding of serum 1a to linear peptides of protein M of SARS-CoV Urbani,[1],0.7
same,Binding of serum 1a to looped/cyclic peptides of protein M of SARS-CoV Urbani,[1],0.5
same,Binding of serum 1b to linear peptides of protein M of SARS-CoV Urbani,[1],0.5
same,Binding of serum 1b to looped/cyclic peptides of protein M of SARS-CoV Urbani,[1],0.2
same,Binding of serum 2 to linear peptides of protein M of SARS-CoV Urbani,[1],0.3
same,Binding of serum 2 to looped/cyclic peptides of protein M of SARS-CoV Urbani,[1],0.4
same,Binding of serum 6 to linear peptides of protein M of SARS-CoV Urbani,[1],0.3
same,Binding of serum 6 to looped/cyclic peptides of protein M of SARS-CoV Urbani,[1],0.4
same,Binding of serum 37 to linear peptides of protein M of SARS-CoV Urbani,[1],0.4
same,Binding of serum 37 to looped/cyclic peptides of protein M of SARS-CoV Urbani,[1],0.6
same,Binding of serum 62 to linear peptides of protein M of SARS-CoV Urbani,[1],0.4
same,Binding of serum 62 to looped/cyclic peptides of protein M of SARS-CoV Urbani,[1],0.4
same,Binding of serum London to linear peptides of protein M of SARS-CoV Urbani,[1],0.3
same,Binding of serum London to looped/cyclic peptides of protein M of SARS-CoV Urbani,[1],0.2
same,Binding of serum SARS-green to linear peptides of protein M of SARS-CoV Urbani,[1],0.3
same,Binding of serum SARS-green to looped/cyclic peptides of protein M of SARS-CoV Urbani,[1],0.0
same,Binding of serum SARS-yellow to linear peptides of protein M of SARS-CoV Urbani,[1],0.1
same,Binding of serum SARS-yellow to looped/cyclic peptides of protein M of SARS-CoV Urbani,[1],0.5
same,Binding of Control Serum Blood-Bank to Looped peptides of the protein M of SARS-CoV Urbani,[2],0.6
same,Binding of Control serum Blood-bank to linear peptides of the protein M of SARS-CoV Urbani,[2],0.4
same,Binding of Control serum LUMC to linear peptides of the protein M of SARS-CoV Urbani,[2],0.5
same,Binding of Control serum LUMC to looped peptides of the protein M of SARS-CoV Urbani,[2],0.7
same,Rabbit serum linear peptides,[3],0.1
same,Rabbit serum looped peptides,[3],0.3
CKSKNPLLYDANYFV,Binding of serum 1a to linear peptides of protein X1 of SARS-CoV Urbani,[1],0.8
same,Binding of serum 1a to looped/cyclic peptide (PEPSCAN-ELISA),[1],0.8
same,Binding of serum 1b to linear peptides of protein X1 of SARS-CoV Urbani,[1],0.5
same,Binding of serum 1b to looped/cyclic peptide (PEPSCAN-ELISA),[1],0.6
same,Binding of serum 2 to linear peptides of protein X1 of SARS-CoV Urbani,[1],0.5
same,Binding of serum 2 to looped/cyclic peptide (PEPSCAN-ELISA),[1],0.5
same,Binding of serum 6 to linear peptides of protein X1 of SARS-CoV Urbani,[1],0.6
same,Binding of serum 6 to looped/cyclic peptide (PEPSCAN-ELISA),[1],0.4
same,Binding of serum 37 to linear peptides of protein X1 of SARS-CoV Urbani,[1],0.7
same,Binding of serum 37 to looped/cyclic peptide (PEPSCAN-ELISA),[1],0.8
same,Binding of serum 62 to linear peptides of protein X1 of SARS-CoV Urbani,[1],0.5
same,Binding of serum 62 to looped/cyclic peptide (PEPSCAN-ELISA),[1],0.8
same,Binding of serum London to linear peptides of protein X1 of SARS-CoV Urbani,[1],0.3
same,Binding of serum London to looped/cyclic peptide (PEPSCAN-ELISA),[1],0.2
same,Binding of serum SARS-green to linear peptides of protein X1 of SARS-CoV Urbani,[1],0.2
same,Binding of serum SARS-green to looped/cyclic peptide (PEPSCAN-ELISA),[1],0.3
same,Binding of serum SARS-yellow to linear peptides of protein X1 of SARS-CoV Urbani,[1],0.2
same,Binding of serum SARS-yellow to looped/cyclic peptide (PEPSCAN-ELISA),[1],0.5
same,Binding of Control Serum Blood-Bank to Looped peptides,[2],0.6
same,Binding of Control serum Blood-bank to linear peptides,[2],0.5
same,Binding of Control serum LUMC to linear peptides,[2],0.8
same,Binding of Control serum LUMC to looped peptides,[2],0.8
same,Binding of a rabbit serum to linear peptides,[3],0.1
same,Binding of a rabbit serum to looped peptides,[3],0.6
